In patent US6451813B1, “Treatment of gastroparesis in certain patient groups” (R. T. Alamo Ventures I, LLC, priority 2001, dated 2002):
Values belong to the compound of their own block, whether it stands above or below them.

How the values were obtained:
[1] = tested on: PDE1 partially purified from bovine heart; assay: PDE1 biochemical enzyme assay ([3H]cAMP hydrolysis); conditions: 100 μM; for % Inhibition of PDE1: Example 3
Experimental: In this example, a racemic mixture of flosequinan and the (+) and (−) enantiomers of flosequinan were subjected to biochemical enzyme assays to determine their respective percent inhibition of a variety of phosphodiesterases (PDE1-PDE6). The reaction conditions for each PDE assay were as follows. PDE1: PDE1 partially purified from bovine heart was used. A racemic mixture of flosequinan, and each enantiomer of flosequinan, all at a molar concentration of 100 μM, were independently incubated with 13 μg PDE1 enzyme, 1.0 μM [^3H]cAMP and CaCl2/calmodulin in Tris buffer pH 7.5 for 20 minutes at 30° C. The reaction was terminated by boiling for 2 minutes, and the resulting AMP was converted to adenosine by addition of 10 mg/ml snake venom nucleotidase and further incubation at 30° C. for 10 minutes. Unhydrolyzed cAMP was bound to AGI-X2 resin, and the remaining [^3H]adenosine in the aqueous phase was quantitated by scintillation counting.

[2] = biological target: T1, PDE6 partially purified from bovine retinal rod and activated by trypsin (Bos taurus, UniProt P11541+P23439); assay: PDE6 biochemical enzyme assay ([3H]cGMP hydrolysis); conditions: Example 1; versus Viagra 0.3 μM
T1 construct: from tissue; host or cells: bovine retinal rod
T1 sequence (P11541 2-856 limits assumed): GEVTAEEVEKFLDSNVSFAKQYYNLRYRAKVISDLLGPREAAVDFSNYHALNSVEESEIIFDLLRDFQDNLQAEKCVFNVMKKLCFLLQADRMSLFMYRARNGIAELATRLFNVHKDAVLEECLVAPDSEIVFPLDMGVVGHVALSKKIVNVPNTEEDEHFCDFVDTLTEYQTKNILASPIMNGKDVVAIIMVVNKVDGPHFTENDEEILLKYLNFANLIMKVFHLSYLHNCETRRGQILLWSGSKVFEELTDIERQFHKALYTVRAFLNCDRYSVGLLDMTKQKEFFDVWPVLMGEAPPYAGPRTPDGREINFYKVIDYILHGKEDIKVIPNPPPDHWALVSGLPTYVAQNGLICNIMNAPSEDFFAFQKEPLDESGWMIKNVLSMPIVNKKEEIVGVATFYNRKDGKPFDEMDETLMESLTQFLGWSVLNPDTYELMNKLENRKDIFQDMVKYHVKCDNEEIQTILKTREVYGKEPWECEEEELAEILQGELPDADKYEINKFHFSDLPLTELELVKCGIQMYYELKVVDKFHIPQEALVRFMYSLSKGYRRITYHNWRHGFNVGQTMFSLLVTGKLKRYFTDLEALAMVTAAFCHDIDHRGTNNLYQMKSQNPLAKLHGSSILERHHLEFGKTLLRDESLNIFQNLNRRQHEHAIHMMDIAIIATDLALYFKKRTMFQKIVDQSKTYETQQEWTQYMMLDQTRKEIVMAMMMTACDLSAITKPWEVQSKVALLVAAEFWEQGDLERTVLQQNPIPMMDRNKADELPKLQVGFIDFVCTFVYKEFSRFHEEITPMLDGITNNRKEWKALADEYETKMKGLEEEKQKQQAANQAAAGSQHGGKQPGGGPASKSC
T1 sequence (P23439 2-850 limits assumed): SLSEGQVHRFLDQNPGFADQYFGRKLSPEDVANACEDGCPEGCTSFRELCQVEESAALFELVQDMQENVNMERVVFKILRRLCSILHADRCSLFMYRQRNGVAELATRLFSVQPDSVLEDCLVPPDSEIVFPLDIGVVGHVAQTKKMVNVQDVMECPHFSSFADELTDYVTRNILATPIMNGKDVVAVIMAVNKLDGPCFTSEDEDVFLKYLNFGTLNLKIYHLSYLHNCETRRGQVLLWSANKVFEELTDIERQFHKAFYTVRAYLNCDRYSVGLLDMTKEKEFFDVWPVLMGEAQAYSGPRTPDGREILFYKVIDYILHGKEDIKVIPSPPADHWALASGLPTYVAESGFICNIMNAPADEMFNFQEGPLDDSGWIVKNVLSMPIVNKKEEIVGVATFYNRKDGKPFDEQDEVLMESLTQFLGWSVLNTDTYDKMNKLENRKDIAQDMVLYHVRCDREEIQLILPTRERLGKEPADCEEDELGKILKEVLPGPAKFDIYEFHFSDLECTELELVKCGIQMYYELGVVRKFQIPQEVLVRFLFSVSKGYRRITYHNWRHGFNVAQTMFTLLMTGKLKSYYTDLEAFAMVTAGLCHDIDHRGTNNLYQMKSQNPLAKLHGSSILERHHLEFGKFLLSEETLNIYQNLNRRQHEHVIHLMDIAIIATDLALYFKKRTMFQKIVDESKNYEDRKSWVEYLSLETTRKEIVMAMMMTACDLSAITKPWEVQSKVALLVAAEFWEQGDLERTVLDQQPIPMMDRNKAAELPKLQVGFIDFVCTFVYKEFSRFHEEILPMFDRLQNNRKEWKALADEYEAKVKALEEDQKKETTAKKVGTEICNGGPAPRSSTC

[3] = cited from earlier work
[4] = Solubility of flosequinan; assay type: physicochemical; conditions: water; organic solvents
Source text: Thus, while the present invention is not limited by the form of oral administration, aqueous and organic solution of flosequinan for oral administration is contemplated. Likewise, flosequinan can be associated with a solid pharmaceutical carrier for solid oral administration (i.e., in pill form).

[5] = biological target: T2, PDE3 partially purified from human platelets (Homo sapiens, UniProt Q14432); assay: PDE3 biochemical enzyme assay ([3H]cAMP hydrolysis); conditions: 100 μM
T2 construct: PDE3 partially purified from human platelets was used; from tissue; host or cells: human platelets
Experimental: PDE3: PDE3 partially purified from human platelets was used. A racemic mixture of flosequinan, and each enantiomer of flosequinan, all at a molar concentration of 100 μM, were independently incubated with 13 μg PDE3 enzyme and 1 μM cAMP containing 0.01 μM [^3H]cAMP in Tris buffer pH 7.5 for 20 minutes at 30° C. The reaction was terminated by boiling for 2 minutes, and the resulting AMP was converted to adenosine by addition of 10 mg/ml snake venom nucleotidase and further incubation at 30° C. for 10 minutes. Unhydrolyzed cAMP was bound to AGI-X2 resin, and the remaining [^3H]adenosine in the aqueous phase was quantitated by scintillation counting.

[6] = following oral administration; cited from earlier work

T2 sequence (Q14432 whole entry): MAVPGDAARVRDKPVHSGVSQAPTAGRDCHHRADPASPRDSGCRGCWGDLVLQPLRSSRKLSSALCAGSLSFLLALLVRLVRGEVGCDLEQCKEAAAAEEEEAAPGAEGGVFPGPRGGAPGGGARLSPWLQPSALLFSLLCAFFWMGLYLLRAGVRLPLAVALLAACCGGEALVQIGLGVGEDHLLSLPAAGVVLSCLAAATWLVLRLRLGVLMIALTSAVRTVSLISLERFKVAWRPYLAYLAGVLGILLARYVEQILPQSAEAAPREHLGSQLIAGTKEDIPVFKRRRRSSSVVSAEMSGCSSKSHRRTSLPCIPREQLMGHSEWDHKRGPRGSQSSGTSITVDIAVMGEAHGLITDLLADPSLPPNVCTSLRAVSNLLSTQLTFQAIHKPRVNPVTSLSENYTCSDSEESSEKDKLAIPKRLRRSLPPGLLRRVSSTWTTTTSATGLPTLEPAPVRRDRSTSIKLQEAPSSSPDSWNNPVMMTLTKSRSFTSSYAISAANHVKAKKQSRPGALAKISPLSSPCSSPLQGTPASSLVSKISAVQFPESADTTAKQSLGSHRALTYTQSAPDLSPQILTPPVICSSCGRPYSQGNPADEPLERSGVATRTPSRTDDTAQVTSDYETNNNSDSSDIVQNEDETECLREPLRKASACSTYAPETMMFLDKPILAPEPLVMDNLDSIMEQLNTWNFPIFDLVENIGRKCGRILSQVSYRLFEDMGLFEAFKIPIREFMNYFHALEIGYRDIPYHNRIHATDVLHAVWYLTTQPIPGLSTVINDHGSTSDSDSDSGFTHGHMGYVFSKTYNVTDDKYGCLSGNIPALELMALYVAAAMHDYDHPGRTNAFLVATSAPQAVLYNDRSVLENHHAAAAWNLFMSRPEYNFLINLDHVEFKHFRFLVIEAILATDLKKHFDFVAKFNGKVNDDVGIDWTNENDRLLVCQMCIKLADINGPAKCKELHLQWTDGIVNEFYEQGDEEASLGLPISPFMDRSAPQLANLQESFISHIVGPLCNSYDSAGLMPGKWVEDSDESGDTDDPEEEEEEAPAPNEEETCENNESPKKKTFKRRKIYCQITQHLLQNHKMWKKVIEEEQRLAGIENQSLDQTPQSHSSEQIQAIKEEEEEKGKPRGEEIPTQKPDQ

- % Inhibition of PDE1 [1]: 31%
- times more compound on a molar basis than Viagra for around 50% inhibition of PDE6 [2]: more than 300 times
Compound: Cn1cc([S+](C)[O-])c(=O)c2ccc(F)cc21 (racemic) [Flosequinan, 7-fluoro-1-methyl-3-(methylsulphinyl)-4(1H)-quinolone]
- time of peak plasma concentrations of flosequinan ([3]; following oral administration): 1 to 2 h
- time of peak metabolite plasma levels ([3]; following oral dosage of flosequinan): about seven
- mean absolute bioavailability ([3]; oral, single dose of fifty milligrams): 72%
- solubility [4]: water soluble and is soluble in many organic solvents

- % Inhibition of PDE1 [1]: 11%
Compound: Cn1cc([S+](C)[O-])c(=O)c2ccc(F)cc21 (single isomer, unassigned; (-)) [(−)-flosequinan]

- PDE1 inhibitory activity compared with the (−) enantiomer of flosequinan [1]: more PDE1 and PDE3 inhibitory activity
- % Inhibition of PDE1 [1]: 28%
- PDE3 inhibitory activity compared with the (−) enantiomer of flosequinan [5]: more PDE1 and PDE3 inhibitory activity
Compound: Cn1cc([S@@+](C)[O-])c(=O)c2ccc(F)cc21 [(+)-flosequinan]

Compound: O=C1CCc2cc(OCCCCc3nnnn3C3CCCCC3)ccc2N1 [cilostazol, 6-[4-(1-cyclohexyl-1H-tetrazol-5-yl)butoxy]-3,4-dihydro-2(1H)-quinolinone]
- time of peak plasma concentrations of cilostazol [6]: 2 to 4 h
